From US6500842B1, “8-hydroxy-7-substituted quinolines as anti-viral agents” (Pharmacia & Upjohn Company, priority 1996, dated 2002) come the findings set out here.

Molecules are shown by their SMILES. pIC50: −log10 of the molar value. Values joined by “and” are separate entries in the source; they are usually repeats but may differ in a detail not shown here. Identical values can stand only once.

T1 sequence (P08546 whole entry): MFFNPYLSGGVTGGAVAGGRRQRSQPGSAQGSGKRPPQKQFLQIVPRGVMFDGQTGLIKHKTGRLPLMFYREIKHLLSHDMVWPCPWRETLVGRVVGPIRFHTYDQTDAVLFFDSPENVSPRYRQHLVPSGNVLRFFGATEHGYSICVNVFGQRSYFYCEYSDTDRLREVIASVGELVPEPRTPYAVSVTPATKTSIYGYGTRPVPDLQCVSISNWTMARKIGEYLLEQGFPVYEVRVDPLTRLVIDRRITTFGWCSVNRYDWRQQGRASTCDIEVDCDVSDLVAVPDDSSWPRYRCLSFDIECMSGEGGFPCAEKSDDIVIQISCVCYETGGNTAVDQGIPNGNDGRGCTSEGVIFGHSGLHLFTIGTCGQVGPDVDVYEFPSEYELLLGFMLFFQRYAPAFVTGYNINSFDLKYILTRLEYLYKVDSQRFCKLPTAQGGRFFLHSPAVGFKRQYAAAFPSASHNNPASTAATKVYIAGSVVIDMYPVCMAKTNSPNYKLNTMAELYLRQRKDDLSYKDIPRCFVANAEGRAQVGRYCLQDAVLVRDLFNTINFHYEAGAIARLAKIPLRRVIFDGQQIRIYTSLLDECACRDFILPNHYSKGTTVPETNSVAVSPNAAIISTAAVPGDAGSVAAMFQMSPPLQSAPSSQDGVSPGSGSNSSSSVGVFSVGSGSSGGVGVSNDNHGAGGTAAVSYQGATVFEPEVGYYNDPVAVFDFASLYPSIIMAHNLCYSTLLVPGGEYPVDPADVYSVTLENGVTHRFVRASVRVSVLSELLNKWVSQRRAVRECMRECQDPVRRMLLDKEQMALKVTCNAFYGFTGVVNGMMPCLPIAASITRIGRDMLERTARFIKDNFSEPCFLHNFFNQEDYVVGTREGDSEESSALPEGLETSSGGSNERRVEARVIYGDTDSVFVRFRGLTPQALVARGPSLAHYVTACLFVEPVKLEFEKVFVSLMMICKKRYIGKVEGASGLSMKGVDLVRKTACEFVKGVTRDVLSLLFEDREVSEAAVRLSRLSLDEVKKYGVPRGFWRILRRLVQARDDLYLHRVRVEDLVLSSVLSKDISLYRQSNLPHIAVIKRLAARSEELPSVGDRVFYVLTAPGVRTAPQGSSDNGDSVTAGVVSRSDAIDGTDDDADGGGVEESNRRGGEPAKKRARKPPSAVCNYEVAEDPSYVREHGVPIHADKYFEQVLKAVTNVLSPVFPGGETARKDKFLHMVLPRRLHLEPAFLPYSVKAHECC

The first experiment addresses T1, HCMV polymerase (Human cytomegalovirus, UniProt P08546).
T1 construct: made in house; host or cells: recombinant baculovirus-infected SF-9 cells
Briefly: HCMV polymerase assay (scintillation proximity assay). Type of experiment: biochemical. Conditions: Conc 1.00e−004 M; Table 2. As for the experimental part:
The HCMV polymerase assay is performed using a scintillation proximity assay (SPA) as described in several references, such as N. D. Cook, et al., Pharmaceutical Manufacturing International, pages 49-53 (1992); K. Takeuchi, Laboratory Practice, September issue (1992); U.S. Pat. No. 4,568,649 (1986); which are incorporated by reference herein. Reactions are performed in 96-well plates. The assay is conducted in 100 μl volume with 5.4 mM HEPES (pH 7.5), 11.7 mM KCl, 4.5 mM MgCl2, 0.36 mg/ml BSA, and 90 nM ^3H-dTTP. Assays are run with and without CHAPS, (3-[(3-Cholamidopropyl)-dimethylammonio]-1-propane-sulfonate) at a final concentration of 2 mM. HCMV is diluted in enzyme dilution buffer containing 50% glycerol, 250 mM NaCl, 10 mM HEPES (pH 7.5), 100 pg/ml BSA, and 0.01% sodium azide. The HCMV polymerase, which is expressed in recombinant baculovirus-infected SF-9 cells and purified according to literature procedures, is added at 10% (or 10 μl) of the final reaction volume, i.e., 100 μl. Compounds are diluted in 50% DMSO and 10 μl are added to each well. Control wells contain an equivalent concentration of DMSO. Unless noted otherwise, reactions are initiated via the addition of 6 nM biotinylated poly(dA)-oligo(dT) template/primer to reaction mixtures containing the enzyme, substrate, and compounds of interest. Plates are incubated in a 25° C. of 37° C. H2O bath and terminated via the addition of 40 μl/reaction of 0.5 M EDTA (pH 8) per well. Reactions are terminated within the time-frame during which substrate incorporation is linear and varied depending upon the enzyme and conditions used, i.e., 30 min. for HCMV polymerase. Ten μl of streptavidin-SPA beads (20 mg/ml in PBS/10% glycerol) are added following termination of the reaction. Plates are incubated 10 min. at 37° C., then equilibrated to room temperature, and counted on a Packard Topcount. Linear regressions are performed and IC50's are calculated using computer software. Results of the testing of compounds of the present invention in this assay are shown in Tables 1, 2, 5, 9, 10, 11, 13 (except for the last compound which was tested under modified conditions) and 14 below.
`Cc1ccc2c(Cl)cc(S(=O)(=O)NCc3cccc4ccccc34)c(O)c2n1` [Example 31, 5-Chloro-8-hydroxy-2-methyl-N-(1-naphthalenylmethyl)-7-quinolinesulfonamide]: the “% Inhib” value worked out at 97.3%.

The same experiment, now with this note: Conc 1.00e−005 M; Table 2.
Regarding `Cc1ccc2c(Cl)cc(S(=O)(=O)NCc3cccc4ccccc34)c(O)c2n1` [Example 31, 5-Chloro-8-hydroxy-2-methyl-N-(1-naphthalenylmethyl)-7-quinolinesulfonamide], the “% Inhib” value is reported as 88.2%.

Still in this experiment, the particulars now being: Conc 1.25e−006 M; Table 2.
With `Cc1ccc2c(Cl)cc(S(=O)(=O)NCc3cccc4ccccc34)c(O)c2n1` [Example 31, 5-Chloro-8-hydroxy-2-methyl-N-(1-naphthalenylmethyl)-7-quinolinesulfonamide], the “% Inhib” value is given as 22.7%.

Staying with this experiment, now noted: Conc 1.30e−005 M; Table 2.
For the compound `Cc1ccc2c(Cl)cc(S(=O)(=O)NCc3cccc4ccccc34)c(O)c2n1` [Example 31, 5-Chloro-8-hydroxy-2-methyl-N-(1-naphthalenylmethyl)-7-quinolinesulfonamide], the “% Inhib” value came out at 97.3%.

Staying with this experiment, now noted: Conc 2.50e−005 M; Table 2.
With `Cc1ccc2c(Cl)cc(S(=O)(=O)NCc3cccc4ccccc34)c(O)c2n1` [Example 31, 5-Chloro-8-hydroxy-2-methyl-N-(1-naphthalenylmethyl)-7-quinolinesulfonamide], the “% Inhib” value is given as 97.8%.

Staying with this experiment, now noted: Conc 2.50e−006 M; Table 2.
In the case of `Cc1ccc2c(Cl)cc(S(=O)(=O)NCc3cccc4ccccc34)c(O)c2n1` [Example 31, 5-Chloro-8-hydroxy-2-methyl-N-(1-naphthalenylmethyl)-7-quinolinesulfonamide], the “% Inhib” value came to 38.5%.

The experiment is the same for the next values; noted with them: Conc 3.13e−006 M; Table 2.
In the case of `Cc1ccc2c(Cl)cc(S(=O)(=O)NCc3cccc4ccccc34)c(O)c2n1` [Example 31, 5-Chloro-8-hydroxy-2-methyl-N-(1-naphthalenylmethyl)-7-quinolinesulfonamide], the “% Inhib” value is recorded as 82.9%.

The same experiment, now with this note: Conc 3.13e−007 M; Table 2.
Consider `Cc1ccc2c(Cl)cc(S(=O)(=O)NCc3cccc4ccccc34)c(O)c2n1` [Example 31, 5-Chloro-8-hydroxy-2-methyl-N-(1-naphthalenylmethyl)-7-quinolinesulfonamide], for which the “% Inhib” value is reported as −7.9%.

Staying with this experiment, now noted: Conc 5.00e−005 M; Table 2.
Take `Cc1ccc2c(Cl)cc(S(=O)(=O)NCc3cccc4ccccc34)c(O)c2n1` [Example 31, 5-Chloro-8-hydroxy-2-methyl-N-(1-naphthalenylmethyl)-7-quinolinesulfonamide]: the “% Inhib” value stood at 97.8%.

Still in this experiment, the particulars now being: Conc 5.00e−006 M; Table 2.
Consider `Cc1ccc2c(Cl)cc(S(=O)(=O)NCc3cccc4ccccc34)c(O)c2n1` [Example 31, 5-Chloro-8-hydroxy-2-methyl-N-(1-naphthalenylmethyl)-7-quinolinesulfonamide], for which the “% Inhib” value was 55%.

Staying with this experiment, now noted: Conc 6.25e−006 M; Table 2.
On to `Cc1ccc2c(Cl)cc(S(=O)(=O)NCc3cccc4ccccc34)c(O)c2n1` [Example 31, 5-Chloro-8-hydroxy-2-methyl-N-(1-naphthalenylmethyl)-7-quinolinesulfonamide], for which the “% Inhib” value is given as 95%.

The experiment is the same for the next values; noted with them: Conc 6.25e−007 M; Table 2.
Turning to `Cc1ccc2c(Cl)cc(S(=O)(=O)NCc3cccc4ccccc34)c(O)c2n1` [Example 31, 5-Chloro-8-hydroxy-2-methyl-N-(1-naphthalenylmethyl)-7-quinolinesulfonamide], the “% Inhib” value is 20%.

The experiment is the same for the next values; noted with them: Table 5; pol type CMV; read-out: IC50.
What is called pIC50 is −log10 of the IC50, conventionally taken in molar units. As for `CCCCCCCNC(=O)c1ccc2ccc(/C=C/c3ccccc3)nc2c1O` [Example 49, N-Heptyl-8-hydroxy-2-(2-phenylethenyl)-7-quinolinecarboxamide], the pIC50 is > 5.51 and 6.22.
`O=C(NCc1ccc(Cl)cc1)c1ccc2ccc(/C=C/c3ccco3)nc2c1O` [Example 57, N-[(4-Chlorophenyl)methyl]-2-[2-(2-furyl)ethenyl]-8-hydroxy-7-quinolinecarboxamide]: the pIC50 was 5.10.

The same experiment, now with this note: Table 9; read-out: CMV pol Assay- IC50.
Turning to `COC(=O)[C@H](Cc1ccc(OCc2ccccc2)cc1)NC(=O)c1ccc2cccnc2c1O`, the pIC50 is 5.31.
On the same count and under the same terms, the result for `O=C(NCc1cccc(Cl)c1Cl)c1ccc2cccnc2c1O` reads 4.84.
Consider `Cc1cccc(CNC(=O)c2ccc3cccnc3c2O)c1`, for which the pIC50 was 4.65.
Same read-out and setting: in the case of `C[C@@H](NC(=O)c1ccc2cccnc2c1O)c1cccc2ccccc12` it was > 5.51 and 5.62 and 4.97.
As for `O=C(N[C@@H]1CC2CCC1C2)c1ccc2cccnc2c1O` (some centres unmarked), the pIC50 was 4.72.
The same measure, in the same setting: in the case of `O=C(N[C@@H](CO)C(=O)OCc1ccccc1)c1ccc2cccnc2c1O` it was 4.95 and 5.04.
The same measure, in the same setting: in the case of `O=C(NCCC1=CCCCC1)c1ccc2cccnc2c1O` it was 4.68.
As for `CC(C)(C)OC(=O)[C@H](Cc1ccc(O)cc1)NC(=O)c1ccc2cccnc2c1O`, the negative logarithm of the IC50 (pIC50) was 5.09.
`CCCCCCC(C)NC(=O)c1ccc2cccnc2c1O` (centres unmarked): the pIC50 is 5.77.
Same read-out and setting: in the case of `CCCCCCCCNC(=O)c1ccc2cccnc2c1O` it was 5.25; in that of `O=C(NCCSc1cc(C(F)(F)F)nc2ccccc12)c1ccc2cccnc2c1O`, 4.90.
Still for that read-out and setting: the result for `CC1CCCCC1NC(=O)c1ccc2cccnc2c1O` (centres unmarked) reads > 5.51 and < 5.00; that for `O=C(NCC(O)c1ccccc1)c1ccc2cccnc2c1O` (centres unmarked), 5.11.
Same read-out and setting: in the case of `CCCCCCCCCCCCCCCCCCNC(=O)c1ccc2cccnc2c1O` it was 4.68; in that of `O=C(NC1CCc2ccccc21)c1ccc2cccnc2c1O` (centres unmarked), 4.88.
For the compound `O=C(NC1C2CC3CC(C2)CC1C3)c1ccc2cccnc2c1O` (centres unmarked), the pIC50 was 4.61.
Turning to `CC(NC(=O)c1ccc2cccnc2c1O)c1ccccc1` (centres unmarked), the pIC50 is 4.65.
The same measure, in the same setting: the result for `O=C(NCc1c(Cl)cccc1Oc1ccccc1)c1ccc2cccnc2c1O` reads 5.51.
Same read-out and setting: the result for `C[C@@H](NC(=O)c1ccc2cccnc2c1O)c1ccccc1` reads 4.61; that for `CC1(C)C2CCC(CNC(=O)c3ccc4cccnc4c3O)C1C2` (centres unmarked), 5.82.
Consider `CC(CNC(=O)c1ccc2cccnc2c1O)c1ccccc1` (centres unmarked), for which the pIC50 is 4.83.
Same read-out and setting: the result for `O=C(NCc1cc(F)ccc1F)c1ccc2cccnc2c1O` reads 4.65; that for `O=C(NCc1cccc(C(F)(F)F)c1)c1ccc2cccnc2c1O`, 5.07; that for `O=C(NCc1ccc(C(F)(F)F)cc1)c1ccc2cccnc2c1O`, 4.86.
As for `O=C(NCc1ccc(F)c(Cl)c1)c1ccc2cccnc2c1O`, the pIC50 is 4.76.
Same read-out and setting: the result for `CCCCCCCNC(=O)c1ccc2cccnc2c1O` reads 5.28.

Still in this experiment, the particulars now being: Table 10; CMV pol Assay; read-out: IC50.
For `O=C(Nc1ccc(Oc2ccc([N+](=O)[O-])cc2)cc1)c1ccc2cccnc2c1O`, the pIC50 is 5.41.
On the same count and under the same terms, the result for `O=C(Nc1cc(Cl)ccc1O)c1ccc2cccnc2c1O` reads 4.86; that for `O=C(Nc1cc(C(F)(F)F)cc(C(F)(F)F)c1)c1ccc2cccnc2c1O`, 4.17; that for `Cc1ccc(NC(=O)c2ccc3cccnc3c2O)c(C)c1` [drawing 279], 5.09.
With `CSc1cccc(NC(=O)c2ccc3cccnc3c2O)c1`, the pIC50 was 4.59.
The same measure, in the same setting: in the case of `Cc1cc(C)cc(NC(=O)c2ccc3cccnc3c2O)c1` it was 4.72.
The same measure, in the same setting: in the case of `CCCc1ccc(NC(=O)c2ccc3cccnc3c2O)cc1` it was 5.51; in that of `O=C(Nc1ccc(F)cc1F)c1ccc2cccnc2c1O`, 4.57.
On to `Cc1ccc(F)cc1NC(=O)c1ccc2cccnc2c1O` [drawing 222], for which the pIC50 is 4.83.
Still for that read-out and setting: in the case of `O=C(Nc1cccc2cccnc12)c1ccc2cccnc2c1O` it was 4.99.
Same read-out and setting: the result for `O=C(Nc1ccc(F)c(F)c1)c1ccc2cccnc2c1O` reads 4.08; that for `Cc1c(NC(=O)c2ccc3cccnc3c2O)cccc1[N+](=O)[O-]`, 5.26.
As to `O=C(Nc1ccccc1F)c1ccc2cccnc2c1O`, the pIC50 is 4.56.
As to `O=C(Nc1ccc(OCc2ccccc2)cc1)c1ccc2cccnc2c1O`, the pIC50 was 5.39.
The same measure, in the same setting: the result for `O=C(Nc1ccc(Sc2ccc([N+](=O)[O-])cc2)cc1)c1ccc2cccnc2c1O` reads < 4.00.
Still for that read-out and setting: in the case of `N#Cc1c(F)c(F)c(NC(=O)c2ccc3cccnc3c2O)c(F)c1F` it was 4.73.
Take `O=C(Nc1cc(Cl)c(O)c(Cl)c1)c1ccc2cccnc2c1O`: the pIC50 is 4.52.
Take `Cc1cccc(NC(=O)c2ccc3cccnc3c2O)c1` [drawing 284]: the pIC50 is 5.15.
As to `O=C(Nc1cc(Br)ccc1Br)c1ccc2cccnc2c1O`, the pIC50 was 5.00.
On the same count and under the same terms, in the case of `O=C(Nc1ccccc1I)c1ccc2cccnc2c1O` it was 4.90; in that of `O=C(Nc1ccccc1-n1cccc1)c1ccc2cccnc2c1O`, 4.55.

The experiment is the same for the next values; noted with them: Table 11; read-out: CMV pol Assay IC50.
With `CC(C)(C)OC(=O)[C@H](Cc1ccc(OC(C)(C)C)cc1)Nc1nnc(NC(=O)c2ccc3cccnc3c2O)s1`, the pIC50 is 5.35.
Regarding `N#CC(Nc1nnc(NC(=O)c2ccc3cccnc3c2O)s1)c1ccc2c(c1)OCO2` (centres unmarked), the pIC50 is 5.51.
Still for that read-out and setting: the result for `CC(C)(C)OC(=O)C(Nc1nnc(NC(=O)c2ccc3cccnc3c2O)s1)c1cccc2c1OCO2` (centres unmarked) reads 5.33.
Still for that read-out and setting: in the case of `CC(C)(C)OC(=O)C[C@H](Nc1nnc(NC(=O)c2ccc3cccnc3c2O)s1)C(=O)OC(C)(C)C` it was 4.62.

Staying with this experiment, now noted: Table 13; read-out: IC50.
Consider `O=C(NCc1ccc(Cl)cc1)c1cc([N+](=O)[O-])c2cccnc2c1O`, for which the pIC50 was 5.59.
With `Cc1cc(O)c2ccc(C(=O)NCc3ccc(Cl)cc3)c(O)c2n1`, the pIC50 is 3.99.

The experiment is the same for the next values; noted with them: Table 14; 25 uM.
As a reminder, the inhibition is the relative decrease from the control value, in per cent. Compound `O=C(NCCc1ccc(F)cc1)c1ccc2cccnc2c1O` returned an inhibition at 25 µM of 42%.
Same read-out and setting: the result for `O=C(NC(CO)c1ccccc1)c1ccc2cccnc2c1O` (centres unmarked) reads 39%; that for `O=C(NCCc1ccccc1F)c1ccc2cccnc2c1O`, 39%; that for `O=C(N[C@H]1CC[C@H](O)CC1)c1ccc2cccnc2c1O`, 21%.

Staying with this experiment, now noted: Table 14; read-out: IC50.
Consider `N#CC(NC(=O)c1ccc2cccnc2c1O)c1ccccc1` (centres unmarked), for which the pIC50 is 4.27.
The same measure, in the same setting: in the case of `O=C(NCc1ccc2c(c1)OCO2)c1ccc2cccnc2c1O` it was 4.59; in that of `CC(C)C[C@H](NC(=O)c1ccc2cccnc2c1O)C(=O)OC(C)(C)C`, 4.29; in that of `O=C(NCc1c(F)cccc1Cl)c1ccc2cccnc2c1O`, 4.52.
The same measure, in the same setting: in the case of `O=C(N[C@H]1CC[C@H](OC(=O)c2ccc3cccnc3c2O)CC1)c1ccc2cccnc2c1O` it was 5.40.

The same experiment, now with this note: pol type CMV; Table 2; read-out: IC50.
Take `Cc1ccc2c(Cl)cc(S(=O)(=O)NCc3cccc4ccccc34)c(O)c2n1` [Example 31, 5-Chloro-8-hydroxy-2-methyl-N-(1-naphthalenylmethyl)-7-quinolinesulfonamide]: the pIC50 was > 5.51 and 5.43.
